According to patent US20260184697A1, “EZH1/2 INHIBITOR, PREPARATION THEREOF, AND USE THEREOF IN ANTI-TUMOR THERAPY” (JIANGSU TASLY DIYI PHARMACEUTICAL CO., LTD., priority 2022, published 2026):
Read-outs that look alike come from different tables or passages of the source.

Tests used:
[1] = molecular target: T1, EZH1/SUZ/EED (Homo sapiens, UniProt O75530+Q15022+Q92800); assay: Inhibitory effect on EZH1 by the MTase-Glo method (Test Example 1); assay type: biochemical; conditions: EZH1/SUZ/EED 25 nM, H3 peptide 10 μM, SAM 3 μM, 30° C. 3 h, read-out: Test Example 1 WT EZH1 IC50
T1 construct: purchased BPS 51006
Outline: (§1)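 EZH2/SUZ/EED (6.25 nM) or EZH1/SUZ/EED (25 nM) pre-incubated 15 min with compound in pH 7.6 Bicine buffer, 0.5% DMSO. Biotinylated H3(21-44) peptide 10 μM plus SAM 3 μM reacted 3 h at 30 °C; MTase-Glo luminescence normalized to controls, IC50 from variable-slope fit.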

[2] = system: H3K27Me3 methylation in Karpas-422 cells; assay: H3K27Me3 cell method, inhibition of H3K27Me3 methylation (Test Example 2); assay type: cell-based, human; conditions: Homo sapiens, KARPAS-422, 72 h
Outline: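 Karpas-422 cells, 15,000/well in 80% RPMI 1640 + 20% FBS, treated with compound dilutions (final DMSO 0.2%) for 3 days at 37 °C, 5% CO2. Cellular H3K27Me3 read by HTRF; viability in parallel by CCK8 at OD405. IC50 from log(inhibitor)-response variable-slope fit of inhibition rate.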

[3] = system: Karpas-422 cells; assay: Anti-proliferation by Cell Titer-Glo method (Test Example 3); assay type: cell-based; conditions: Homo sapiens
Description: Karpas-422 (Nanjing Kebai, CBP60629) cells were seeded in a 96-well plate (Corning, 3894) at 1,000 cells per well in growth medium (80% 1640 (Hyclone, SH30809.01)+20% FBS (Corning, 35-081-CV)), in a total of 100 μL, and then was added with 25 μL of 5-fold different concentrations of compounds diluted in growth medium. The cell growth group without compound addition was used as a positive control (maximum signal control), and the medium was used as a negative control (minimum signal control), while ensuring that the final contration of DMSO in each reaction well was 0.2%. Then the 96-well cell plate was placed in a cell culture incubator (37° C., 5% CO2) and incubated for 3 days. On the fourth day, the cell culture plate was taken out of the incubator, using a row gun to gently blow the cells up and down to mix, removing 62.5 μL of the cell suspension, adding 50 μL of growth medium and 12.5 μL of compounds of 5 times different concentrations, and then putting them in the cell incubator to incubate for 4 days. On the eighth day, the same method was used as the fourth day to treat the cells, then incubating in the cell culture incubator for 3 days. On the eleventh day, the Cell-Titer Glo (Promega, G7573) was used to detect cell viability, and a microplate reader was used to detect the signal value of luminescence.
The inhibition rate of different concentrations of compounds on cells was calculated as inhibition rate=[1−(compound signal value−negative control signal value)/(positive control signal value-negative control signal value)][…]. The IC50 of the compound on cell activity inhibition was calculated by GraphPad Prism 6 with log(inhibitor) vs. response-Variable slope model fitting. The fitting equation is: Y=Bottom+(Top−Bottom)/(1+10^((Log IC50−X)*Hill Slope)), wherein Y represents the inhibition rate, and X represents the known concentration of the compound after Log.

[4] = molecular target: T2, EZH2/SUZ/EED (Homo sapiens, UniProt O75530+Q15022+Q15910); assay: Inhibitory effect on EZH2 by the MTase-Glo method (Test Example 1); assay type: biochemical; conditions: EZH2/SUZ/EED 6.25 nM, H3 peptide 10 μM, SAM 3 μM, 30° C. 3 h, read-out: Test Example 1 WT EZH2 IC50
T2 construct: purchased BPS 51003
Outline: as §1

[5] = Karpas-422 cells, 3 days incubation, HTRF signal, read-out: Test Example 2 H3K27Me3 inhibition (Karpas-422) IC50
[6] = Karpas-422 cells, Cell-Titer Glo on the eleventh day, read-out: Test Example 3 Karpas-422 cell anti-proliferation IC50
[7] = read-out: Test Example 2 H3K27Me3 inhibition (Karpas-422) IC50(nM)
[8] = KARPAS-422, read-out: Test Example 3 Karpas-422 cell anti-proliferation IC50(nM)

T1 sequence (Q92800 2-747 limits assumed): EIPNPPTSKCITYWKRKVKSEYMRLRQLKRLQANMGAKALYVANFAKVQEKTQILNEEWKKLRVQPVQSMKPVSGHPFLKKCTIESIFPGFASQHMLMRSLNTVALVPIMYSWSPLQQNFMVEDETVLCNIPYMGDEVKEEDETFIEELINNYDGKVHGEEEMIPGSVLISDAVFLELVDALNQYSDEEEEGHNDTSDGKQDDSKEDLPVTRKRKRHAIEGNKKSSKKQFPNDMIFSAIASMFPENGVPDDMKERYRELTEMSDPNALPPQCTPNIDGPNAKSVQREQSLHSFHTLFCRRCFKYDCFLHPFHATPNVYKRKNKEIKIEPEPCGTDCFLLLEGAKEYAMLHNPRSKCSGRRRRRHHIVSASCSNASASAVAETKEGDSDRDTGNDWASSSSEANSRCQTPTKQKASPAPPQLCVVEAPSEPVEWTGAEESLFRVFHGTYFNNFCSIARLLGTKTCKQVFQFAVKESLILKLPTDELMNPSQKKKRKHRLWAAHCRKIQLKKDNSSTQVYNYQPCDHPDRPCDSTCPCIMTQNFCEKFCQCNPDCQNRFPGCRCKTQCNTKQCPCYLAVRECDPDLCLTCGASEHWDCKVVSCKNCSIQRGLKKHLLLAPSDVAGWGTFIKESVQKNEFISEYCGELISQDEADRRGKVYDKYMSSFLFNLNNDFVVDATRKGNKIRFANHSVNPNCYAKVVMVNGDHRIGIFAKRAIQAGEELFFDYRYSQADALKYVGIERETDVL
T1 sequence (Q15022 2-739 partner limits assumed): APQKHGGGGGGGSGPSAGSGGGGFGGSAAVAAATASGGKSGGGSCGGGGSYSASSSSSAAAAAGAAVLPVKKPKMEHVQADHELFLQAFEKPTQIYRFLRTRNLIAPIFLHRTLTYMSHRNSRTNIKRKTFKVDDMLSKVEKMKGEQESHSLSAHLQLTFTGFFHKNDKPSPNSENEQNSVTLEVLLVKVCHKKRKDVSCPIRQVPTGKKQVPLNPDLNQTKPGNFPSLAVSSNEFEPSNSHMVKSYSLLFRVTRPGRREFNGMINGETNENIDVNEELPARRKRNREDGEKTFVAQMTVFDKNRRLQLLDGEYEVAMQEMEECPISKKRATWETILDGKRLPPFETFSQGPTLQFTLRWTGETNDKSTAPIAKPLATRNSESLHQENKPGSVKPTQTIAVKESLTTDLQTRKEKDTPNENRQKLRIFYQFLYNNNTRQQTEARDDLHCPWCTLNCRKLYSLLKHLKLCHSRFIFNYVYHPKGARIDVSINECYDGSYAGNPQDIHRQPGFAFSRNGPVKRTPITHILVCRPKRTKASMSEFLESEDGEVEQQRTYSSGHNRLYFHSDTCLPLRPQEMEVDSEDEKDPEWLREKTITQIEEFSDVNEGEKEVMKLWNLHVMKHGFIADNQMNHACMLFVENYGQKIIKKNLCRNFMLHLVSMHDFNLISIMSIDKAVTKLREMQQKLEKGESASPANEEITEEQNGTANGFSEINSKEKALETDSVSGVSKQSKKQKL
T1 sequence (O75530 2-441 partner limits assumed): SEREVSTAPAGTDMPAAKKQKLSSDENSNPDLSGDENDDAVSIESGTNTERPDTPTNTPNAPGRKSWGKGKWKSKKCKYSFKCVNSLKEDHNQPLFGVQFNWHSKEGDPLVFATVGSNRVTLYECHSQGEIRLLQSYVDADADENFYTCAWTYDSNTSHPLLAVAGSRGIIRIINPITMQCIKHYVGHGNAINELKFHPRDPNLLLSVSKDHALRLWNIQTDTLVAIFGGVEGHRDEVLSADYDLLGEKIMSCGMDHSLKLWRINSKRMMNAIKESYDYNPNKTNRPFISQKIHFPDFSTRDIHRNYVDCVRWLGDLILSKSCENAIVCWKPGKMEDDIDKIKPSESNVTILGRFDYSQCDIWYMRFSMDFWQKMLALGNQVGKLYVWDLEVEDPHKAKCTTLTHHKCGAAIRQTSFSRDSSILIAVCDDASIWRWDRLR
T2 sequence (Q15910 2-746 limits assumed): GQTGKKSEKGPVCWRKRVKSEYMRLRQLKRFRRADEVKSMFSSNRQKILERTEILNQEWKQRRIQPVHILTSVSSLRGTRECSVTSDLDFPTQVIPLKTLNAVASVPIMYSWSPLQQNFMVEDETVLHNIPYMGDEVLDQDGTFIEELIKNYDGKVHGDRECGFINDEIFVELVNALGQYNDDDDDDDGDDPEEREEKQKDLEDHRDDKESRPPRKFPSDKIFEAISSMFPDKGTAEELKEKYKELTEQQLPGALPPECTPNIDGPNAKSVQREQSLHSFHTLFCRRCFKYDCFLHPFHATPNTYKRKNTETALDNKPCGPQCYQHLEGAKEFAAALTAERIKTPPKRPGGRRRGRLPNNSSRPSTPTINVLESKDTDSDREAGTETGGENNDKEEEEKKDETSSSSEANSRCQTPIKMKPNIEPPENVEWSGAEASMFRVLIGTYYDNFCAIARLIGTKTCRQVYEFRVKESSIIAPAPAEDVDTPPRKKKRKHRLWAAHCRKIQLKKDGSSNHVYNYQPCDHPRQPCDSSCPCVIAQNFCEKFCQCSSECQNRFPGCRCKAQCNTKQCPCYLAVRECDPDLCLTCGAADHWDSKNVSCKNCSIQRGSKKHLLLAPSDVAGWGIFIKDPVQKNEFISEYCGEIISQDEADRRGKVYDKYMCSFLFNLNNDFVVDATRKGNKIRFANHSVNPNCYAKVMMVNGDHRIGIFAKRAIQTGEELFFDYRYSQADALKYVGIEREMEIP
T2 sequence (Q15022 2-739 partner limits assumed): as the sequence (Q15022 2-739 partner limits assumed) above
T2 sequence (O75530 2-441 partner limits assumed): as the sequence (O75530 2-441 partner limits assumed) above

| IC50 [1] [nM] | IC50 [2, 5] [nM] | IC50 [3, 6] [nM] | IC50 [4] [nM] | SMILES | IC50 [2, 7] [nM] | IC50 [3, 8] [nM] |
| --- | --- | --- | --- | --- | --- | --- |
| 400 | > 1000 | > 1000 | 250 | Cc1cc(C)c(CNC(=O)c2cc(Cl)c3c(c2C)O[C@H]([C@H]2CC[C@@H](N(C)C)CC2)CO3)c(=O)[nH]1 [Compound 54] |  |  |
| 150 | 19.4 | 47.3 | 4.5 | Cc1cc(C)c(CNC(=O)c2cc(Cl)c3c(c2C)OC[C@@H]([C@H]2CC[C@@H](N(C)C)CC2)O3)c(=O)[nH]1 [Compound 55] |  |  |
| 810 | 944 | > 1000 | 340 | Cc1cc(C)c(CNC(=O)c2cc(Cl)c3c(c2C)OC[C@H]([C@H]2CC[C@@H](N(C)C)CC2)O3)c(=O)[nH]1 [Compound 56] |  |  |
| 375 | 616 | 341 | 11.5 | Cc1cc(C)c(CNC(=O)c2cc(Cl)c3c(c2C)OC(C2CCC(N4CCCC4)CC2)CO3)c(=O)[nH]1 (stereo not shown) [Compound 63] |  |  |
| 8.1 | 2.8 | 5.1 | 3 | COc1cc(C)[nH]c(=O)c1CNC(=O)c1cc(Cl)c2c(c1C)O[C@@H]([C@H]1CC[C@@H](N(C)C)CC1)CO2 [Compound 94] |  |  |
| 15.2 | 8.2 | 5.3 | 3.25 | COc1cc(C)[nH]c(=O)c1CNC(=O)c1cc(Cl)c2c(c1C)O[C@@H]([C@H]1CC[C@@H](N3CC(OC)C3)CC1)CO2 [Compound 97] |  |  |
| 5.5 | 2.2 | 3.8 | 3.1 | COCCOC1CN([C@H]2CC[C@@H]([C@H]3COc4c(Cl)cc(C(=O)NCc5c(OC)cc(C)[nH]c5=O)c(C)c4O3)CC2)C1 [Compound 101] |  |  |
| 3.8 | 1.8 | 2.5 | 2 | COc1cc(C)[nH]c(=O)c1CNC(=O)c1cc(Cl)c2c(c1C)O[C@@H]([C@H]1CC[C@@H](N3CC(OCCF)C3)CC1)CO2 [Compound 109] |  |  |
| 3.3 | 3.6 | 2.7 | 2.3 | COC1CN([C@H]2CC[C@@H]([C@H]3COc4c(Cl)cc(C(=O)NCc5c(SC)cc(C)[nH]c5=O)c(Cl)c4O3)CC2)C1 [Compound 149] |  |  |
| 6.9 | 6.2 | 3.7 | 3.2 | COC1CN([C@H]2CC[C@@H]([C@H]3COc4c(C#N)cc(C(=O)NCc5c(SC)cc(C)[nH]c5=O)c(C)c4O3)CC2)C1 [Compound 153] |  |  |
| 7 | 1.4 | 2.3 | 1.1 | CSc1cc(C)[nH]c(=O)c1CNC(=O)c1cc(C#N)c2c(c1C)O[C@@H]([C@H]1CC[C@@H](N3CC(OC4CC4)C3)CC1)CO2 [Compound 159] |  |  |
| 5.5 | 2.2 | 2.4 | 3.7 | CSc1cc(C)[nH]c(=O)c1CNC(=O)c1cc(C#N)c2c(c1C)O[C@@H]([C@H]1CC[C@@H](N3CC(OCCF)C3)CC1)CO2 [Compound 161] |  |  |
| 5.8 | 4.2 | 1.8 | 6 | COC1CN([C@H]2CC[C@@H]([C@H]3COc4c(F)cc(C(=O)NCc5c(SC)cc(C)[nH]c5=O)c(C)c4O3)CC2)C1 [Compound 169] |  |  |
| 16.6 | 16.1 | 13.6 | 3.4 | COC1CN([C@H]2CC[C@@H]([C@H]3COc4c(Cl)cc(C(=O)NCc5c(Cl)cc(C)[nH]c5=O)c(C)c4O3)CC2)C1 [Compound 175] |  |  |

| SMILES | IC50 [1] [nM] | IC50 [2, 5] [nM] | IC50 [3, 6] [nM] | IC50 [4] [nM] | IC50 [2, 7] [nM] | IC50 [3, 8] [nM] |
| --- | --- | --- | --- | --- | --- | --- |
| Cc1cc(C)c(CNC(=O)c2c(C)c3c(c(Cl)c2F)OC[C@H](C2CCC(N(C)C)CC2)O3)c(=O)[nH]1 (stereo partly shown) [Compound 130] | 201 |  |  | 12.6 | 209 | 115 |
| Cc1cc(C)c(CNC(=O)c2cc(Cl)c3c(c2Cl)O[C@@H]([C@H]2CC[C@@H](N(C)C)CC2)CO3)c(=O)[nH]1 [Compound 143] | 39.9 |  |  | 5.5 | 22 | 10.7 |
